Data reported in ChEMBL document CHEMBL3826944, “Syringaresinol induces mitochondrial biogenesis through activation of PPARβ pathway in skeletal muscle cells” (Bioorg Med Chem Lett, 2016).
The source made the active and inactive calls.

Experiments:
[1] = species on record: Mus musculus; assay: Activation of AMPK in mouse C2C12 myotubes assessed as increase in expression of phosphorylated AMPK at Thr-172 residue at 1 uM after 24 hrs by immunoblot method
[2] = tested on: C2C12; assay: Induction of SIRT1 protein expression in mouse C2C12 myotubes at 1 uM after 24 hrs by immunoblot method; assay type: functional, cell-based
[3] = tested on: C2C12; assay: Upregulation of PPARbeta protein expression in PPARbeta siRNA transfected mouse C2C12 myotubes at 1 uM after 24 hrs by immunoblot method; assay type: functional, cell-based
[4] = tested on: C2C12; assay: Upregulation of PGC1-alpha protein expression in PPARbeta siRNA transfected mouse C2C12 myotubes at 1 uM after 24 hrs by immunoblot method relative to control; assay type: functional, cell-based
[5] = tested on: C2C12; assay: Upregulation of CPT1 protein expression in PPARbeta siRNA transfected mouse C2C12 myotubes at 1 uM after 24 hrs by immunoblot method relative to control; assay type: functional, cell-based
[6] = tested on: C2C12; assay: Upregulation of UCP2 protein expression in PPARbeta siRNA transfected mouse C2C12 myotubes at 1 uM after 24 hrs by immunoblot method relative to control; assay type: functional, cell-based
[7] = tested on: C2C12; assay: Induction of PPARbeta protein expression in mouse C2C12 myotubes at <50 uM after 24 hrs by immunoblot method; assay type: functional, cell-based
[8] = tested on: C2C12; assay: Induction of mitochondrial biogenesis in mouse C2C12 myotubes assessed as increase in mitochondrial density at 50 uM after 24 hrs by Mitotracker Green staining based fluorescence microscopic analysis relative to control; assay type: functional
[9] = tested on: C2C12; assay: Induction of PPARbeta mRNA expression in mouse C2C12 myotubes at <50 uM after 24 hrs by qRT-PCR method; assay type: functional, cell-based
[10] = target: T1, Peroxisome proliferator-activated receptor delta (Homo sapiens) (UniProt Q03181); assay: (§1) Activation of PPARbeta-LBD (unknown origin) assessed as fluorescein-labeled coactivator C33 recruitment by TR-FRET assay
T1 sequence (whole entry): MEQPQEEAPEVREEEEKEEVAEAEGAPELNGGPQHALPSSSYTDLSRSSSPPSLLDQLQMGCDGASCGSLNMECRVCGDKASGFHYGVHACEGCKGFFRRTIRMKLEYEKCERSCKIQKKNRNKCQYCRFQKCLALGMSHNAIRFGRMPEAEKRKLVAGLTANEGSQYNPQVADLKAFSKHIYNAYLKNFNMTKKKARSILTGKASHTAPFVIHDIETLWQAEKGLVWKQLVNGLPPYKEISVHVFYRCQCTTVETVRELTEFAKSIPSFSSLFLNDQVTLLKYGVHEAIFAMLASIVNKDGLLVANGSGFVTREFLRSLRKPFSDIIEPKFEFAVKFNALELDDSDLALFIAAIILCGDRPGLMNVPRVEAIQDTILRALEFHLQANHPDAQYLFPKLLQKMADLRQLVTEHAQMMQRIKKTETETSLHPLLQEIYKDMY

[11] = target: T2, Peroxisome proliferator-activated receptor delta (Homo sapiens, UniProt Q03181); assay: as §1
T2 sequence (Q03181 whole entry): T1 sequence (whole entry)

[12] = tested on: C2C12; assay: Induction of PPARbeta protein expression in mouse C2C12 myotubes at 50 uM after 24 hrs by immunoblot method; assay type: functional, cell-based
[13] = tested on: C2C12; assay: Induction of SIRT1 protein expression in mouse C2C12 myotubes at 50 uM after 24 hrs by immunoblot method; assay type: functional, cell-based
[14] = tested on: C2C12; assay: Induction of mitochondrial density in scramble siRNA transfected mouse C2C12 myotubes at 50 uM after 24 hrs by Mitotracker Green staining based fluorescence microscopic analysis; assay type: functional, cell-based
[15] = tested on: C2C12; assay: Induction of PPARbeta mRNA expression in mouse C2C12 myotubes at 50 uM after 24 hrs by qRT-PCR method relative to control; assay type: functional
[16] = tested on: C2C12; assay: Upregulation of PPARbeta protein expression in PPARbeta siRNA transfected mouse C2C12 myotubes at 50 uM after 24 hrs by immunoblot method; assay type: functional, cell-based
[17] = species on record: Mus musculus; assay: Activation of AMPK in mouse C2C12 myotubes assessed as increase in expression of phosphorylated AMPK at Thr-172 residue at 50 uM after 24 hrs by immunoblot method
[18] = tested on: C2C12; assay: Upregulation of PGC1-alpha protein expression in PPARbeta siRNA transfected mouse C2C12 myotubes at 50 uM after 24 hrs by immunoblot method relative to control; assay type: functional, cell-based
[19] = tested on: C2C12; assay: Induction of mitochondrial DNA content in scramble siRNA transfected mouse C2C12 myotubes at 50 uM after 24 hrs by qRT-PCR method; assay type: functional, cell-based
[20] = tested on: C2C12; assay: Induction of mitochondrial DNA content in PPARbeta siRNA transfected mouse C2C12 myotubes at 50 uM after 24 hrs by qRT-PCR method; assay type: functional, cell-based
[21] = target: T3, Peroxisome proliferator-activated receptor delta (Mus musculus) (UniProt P35396); assay: Activation of PPARbeta in mouse C2C12 myotubes assessed as increase in PGC-1alpha protein expression at 10 to 25 uM after 24 hrs by immunoblot method
T3 sequence (whole entry): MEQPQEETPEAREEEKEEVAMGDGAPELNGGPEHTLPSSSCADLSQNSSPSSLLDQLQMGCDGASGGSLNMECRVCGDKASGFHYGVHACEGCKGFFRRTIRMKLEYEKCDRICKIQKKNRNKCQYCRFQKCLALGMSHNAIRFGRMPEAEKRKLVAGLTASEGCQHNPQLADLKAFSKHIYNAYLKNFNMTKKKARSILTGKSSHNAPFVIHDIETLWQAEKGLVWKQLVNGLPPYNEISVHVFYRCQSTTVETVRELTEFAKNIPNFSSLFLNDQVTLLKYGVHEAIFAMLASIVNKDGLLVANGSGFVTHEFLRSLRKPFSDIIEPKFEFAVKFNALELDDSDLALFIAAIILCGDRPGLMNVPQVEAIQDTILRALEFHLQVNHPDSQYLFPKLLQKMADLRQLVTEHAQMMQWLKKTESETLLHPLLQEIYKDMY

[22] = target: T2, Peroxisome proliferator-activated receptor delta; assay: Binding affinity to recombinant PPARbeta-LBD (254 to 441 residues) (unknown origin) expressed in Escherichia coli Rosetta2 cells by isothermal titration calorimetry
[23] = tested on: C2C12; assay: Induction of mitochondrial biogenesis in mouse C2C12 myotubes assessed as increase in mitochondrial density at 25 uM after 24 hrs by Mitotracker Green staining based fluorescence microscopic analysis relative to control; assay type: functional
[24] = tested on: C2C12; assay: Upregulation of CPT1 protein expression in PPARbeta siRNA transfected mouse C2C12 myotubes at 50 uM after 24 hrs by immunoblot method relative to control; assay type: functional, cell-based
[25] = tested on: C2C12; assay: Induction of mitochondrial density in PPARbeta siRNA transfected mouse C2C12 myotubes at 50 uM after 24 hrs by Mitotracker Green staining based fluorescence microscopic analysis; assay type: functional, cell-based
[26] = tested on: C2C12; assay: Upregulation of UCP2 protein expression in PPARbeta siRNA transfected mouse C2C12 myotubes at 50 uM after 24 hrs by immunoblot method relative to control; assay type: functional, cell-based
[27] = target: T3, Peroxisome proliferator-activated receptor delta (Mus musculus); assay: Activation of PPARbeta in mouse C2C12 myotubes assessed as increase in PGC-1alpha mRNA level at 10 to 25 uM after 24 hrs by qRT-PCR method
[28] = tested on: C2C12; assay: Induction of mitochondrial biogenesis in mouse C2C12 myotubes assessed as increase in mitochondrial DNA content at 25 to 50 uM after 24 hrs by qRT-PCR method; assay type: functional, cell-based

Cc1cc(SCc2sc(-c3ccc(C(F)(F)F)c(F)c3)nc2C)ccc1OCC(=O)O
inactive: Activity [3] | Activity [4] | Activity [5] | Activity [6]
active: Activity [1] | Activity [2]

COc1cc([C@H]2OC[C@H]3[C@@H]2CO[C@@H]3c2cc(OC)c(O)c(OC)c2)cc(OC)c1O [SYRINGARESINOL]
18.1 µM: EC50 [11]
14%: Activity [23]
18%: Activity [8]
>2: fold change (FC) [15]
27.6 µM: Kd [22]
active: Activity [10] Dose-dependent effect | Activity [12] | Activity [14] | Activity [19] | Activity [21] | Activity [27] | Activity [28] Dose-dependent effect
inactive: Activity [7] | Activity [9] | Activity [13] | Activity [16] | Activity [17] | Activity [18] | Activity [20] | Activity [24] | Activity [25] | Activity [26]
